Numbers after ± are expanded uncertainties.
How the values were obtained:
[1] = for Glass transition temperature: DSC
[2] = Molar enthalpy of transition or fusion; details: Crystal; DSC
[3] = molar heat capacity at constant pressure; details: 101.33 kPa, DSC

c1ccc(-c2cccc(-c3ccccc3)c2)cc1 [m-terphenyl]
Details | Normal melting temperature [°C] | molar heat capacity at constant pressure [J/K/mol]
[1], Crystal, DTA | 88 ± 0.5 | –
[3], 212 K, Crystal | – | 190.6 ± 9.5
[3], 212 K, Glass | – | 193.8 ± 9.7
[3], 217 K, Glass | – | 200 ± 10
[3], 222 K, Crystal | – | 200.7 ± 10
[3], 222 K, Glass | – | 206.2 ± 10
[3], 227 K, Glass | – | 212.4 ± 11
[3], 232 K, Crystal | – | 210.8 ± 10
[3], 232 K, Glass | – | 218.6 ± 11
[3], 237 K, Glass | – | 224.8 ± 11
[3], 242 K, Crystal | – | 220.8 ± 11
[3], 252 K, Crystal | – | 230.9 ± 12
[3], 262 K, Crystal | – | 241 ± 12
[3], 272 K, Crystal | – | 251.1 ± 13
[3], 280 K, Liquid | – | 364.8 ± 18
[3], 282 K, Crystal | – | 261.2 ± 13
[3], 290 K, Liquid | – | 370.5 ± 18
[3], 292 K, Crystal | – | 271.2 ± 14
[3], 300 K, Liquid | – | 376.3 ± 19
[3], 302 K, Crystal | – | 281.3 ± 14
[3], 310 K, Liquid | – | 382.1 ± 19
[3], 312 K, Crystal | – | 291.4 ± 15
[3], 318 K, Crystal | – | 299.5 ± 15
[3], 320 K, Liquid | – | 387.8 ± 19
[3], 322 K, Crystal | – | 301.5 ± 15
[3], 323 K, Crystal | – | 304.2 ± 15
[3], 328 K, Crystal | – | 308.9 ± 15
[3], 330 K, Crystal | – | 309.5 ± 16
[3], 330 K, Liquid | – | 393.6 ± 20
[3], 333 K, Crystal | – | 313.5 ± 16
[3], 338 K, Crystal | – | 318.2 ± 16
[3], 340 K, Liquid | – | 399.3 ± 20
[3], 343 K, Crystal | – | 322.9 ± 16
[3], 348 K, Crystal | – | 327.5 ± 16
[3], 350 K, Liquid | – | 405.1 ± 20
[3], 360 K, Liquid | – | 410.9 ± 20
[3], 370 K, Liquid | – | 416.6 ± 21
[3], 378 K, Liquid | – | 421.2 ± 21

Details | Glass transition temperature [°C] | Molar enthalpy of transition or fusion [kcal/mol]
[1] | -17 ± 1 | –
[2] | – | 5.69 ± 0.141

c1ccc(-c2ccccc2-c2ccccc2)cc1 [o-terphenyl]
Details | Glass transition temperature [°C]
[1] | -3 ± 1

[3]
Details | molar heat capacity at constant pressure [J/K/mol]
212 K, Glass | 181.5 ± 9.1
217 K, Glass | 187.8 ± 9.4
222 K, Glass | 194 ± 9.7
227 K, Glass | 200.3 ± 10
232 K, Glass | 206.5 ± 10
237 K, Glass | 212.8 ± 11
242 K, Glass | 219 ± 11
280 K, Liquid | 356.2 ± 18
290 K, Liquid | 363.1 ± 18
300 K, Liquid | 370 ± 18
310 K, Liquid | 376.9 ± 19
320 K, Liquid | 383.8 ± 19
330 K, Liquid | 390.7 ± 20
340 K, Liquid | 397.6 ± 20
350 K, Liquid | 404.4 ± 20
